The target of test [1] is T1, CTF18–RFC bound to PCNA (ADP site in RFC3) (Homo sapiens, UniProt P40938).
T1 construct: same complex as P1; RFC3 with N-terminal His6 tag, insect cells; Ctf8/Dcc1 module not resolved in map; with Chromosome transmission fidelity protein 18 homolog; Replication factor C subunit 2; Replication factor C subunit 4; Replication factor C subunit 5; Sister chromatid cohesion protein DCC1; Chromosome transmission fidelity protein 8 homolog; Proliferating cell nuclear antigen
Description: cryo-EM structure ([…] Å without Mg2+; […] Å with Mg2+). The class given is binding. Particulars: ADP in AAA+ site of RFC3, not added, probably co-purified; seen with and without Mg2+.

The target in test [2] is T2, CTF18–RFC bound to PCNA (ATP sites in Ctf18, RFC2, RFC5) (Homo sapiens, UniProt P35250+P40937+Q8WVB6).
T2 construct: gene CHTF18; seven-subunit complex from insect cells (MultiBac, Sf9/Hi5); N-terminal twin-Strep-TEV tag (Ctf18, RFC2, RFC4) and N-terminal His6 tag (RFC3, RFC5, Dcc1, Ctf8), TEV treated; PCNA from E. coli; Ctf8/Dcc1 module not resolved in map; with Replication factor C subunit 4; Replication factor C subunit 3; Sister chromatid cohesion protein DCC1; Chromosome transmission fidelity protein 8 homolog; Proliferating cell nuclear antigen
The test is described as above. In kind it is binding. Particulars: ATP in AAA+ sites of Ctf18 (adenine density poor), RFC2 and RFC5; RFC4 empty; 0.5 mM ATP, pH 7.5, without Mg2+ or with 5 mM Mg2+ (Mg2+ seen in RFC2 and RFC5); autoinhibited state, closed PCNA.

Consider `Nc1ncnc2c1ncn2[C@@H]1O[C@H](COP(=O)(O)OP(=O)(O)O)[C@@H](O)[C@H]1O` [ADP], for which the “cryo-EM structure (2.9 Å without Mg2+; 3.2 Å with Mg2+)” value in test [1] is recorded as “while ADP appears to engage RFC3”.

For the molecule `Nc1ncnc2c1ncn2[C@@H]1O[C@H](COP(=O)(O)OP(=O)(O)OP(=O)(O)O)[C@@H](O)[C@H]1O` [ATP], the “cryo-EM structure (2.9 Å without Mg2+; 3.2 Å with Mg2+)” value in test [2] is “ATP is bound to subunits Ctf18, RFC2, and RFC5, while ADP appears to engage RFC3”.

These data come from paper PMC12928700, “Structure of the human CTF18−RFC clamp loader bound to PCNA” (eLife, 2026).
